Assay [1] relates to Pentylenetetrazole-Induced Convulsion. As to the kind of experiment: Potentiation of Pentylenetetrazole-Induced Convulsion (inverse agonist activity). The conditions noted are these: Mus musculus; intravenous injection; pentylenetetrazole 90 mg/kg subcutaneous; 2-hour observation; male mice; probit method; read-out: ED50 (dose required to produce tonic convulsion and death in 50% of the animals). In kind it is in vivo. The protocol: Potentiation of Pentylenetetrazole-Induced Convulsion
Inverse agonist activity was evaluated in this Experiment. Pentylenetetrazole was subscutaneously administered male mice (a group of 8-16 male mice was employed in each test) at a dose of 90 mg/kg immediately after intravenous injection of the test compound. The dose (ED50) required to produce tonic convulsion and death in 50% of the aminals during subsequent 2-hour observation period was calculated by the probit method.

In another assay the target is Benzodiazepine Receptor. In words: Test on Binding to Benzodiazepine Receptor (inhibition of specific binding of tritium-labeled diazepam). More on the design: species or system male Wistar rats (cerebral cortex). The conditions noted are these: 2 nM tritium-labeled diazepam, 0° C., 60 minutes, rat cerebral cortex receptor preparation. The protocol: Test on Binding to Benzodiazepine Receptor
This test was carried out modifying partially a method of Mohler & Okada, Science, 198, 849-851 (1977). Receptor preparation was provided from the cerebral cortex of male Wistar rats (11-13 weeks age). Inhibitory action of the test compound on the specific binding of tritium-labeled diazepam to the receptor was evaluated as follows: 2 nM tritium-labeled diazepam and an aqueous solution of the test compound in 5 or 6 different concentrations were incubated with the receptor preparation at 0° C. for 60 minutes. The 50% inhibitory concentration (IC50) was measured by the concentration-response curve. In addition, the inhibitory constant (Ki) of the test compound was calculated by dissociation constant (Kd) and concentration (L) of the tritium-labeled diazepam.

The test system of assay [2] is Pentylenetetrazole-Induced Convulsion. In words: Antagonism of Pentylenetetrazole-Induced Convulsion (agonistic activity). The class given is in vivo. The conditions noted are these: Mus musculus; intravenous injection; pentylenetetrazole 125 mg/kg subcutaneous; 2-hour observation; male mice; probit method; read-out: ED50 (dose required to prevent tonic convulsion and death in 50% of the animals). The protocol:
Anatagonism of Pentylenetetrazole-Induced Convulsion
Agonistic activity was evaluated in this Experiment. Pentylenetetrazole was subscutaneously administered male mice (a group of 8-16 male mice was employed in each test) at a dose of 125 mg/kg immediately after intravenous injection of the test compound. The dose (ED50) required to prevent tonic convulsion and death in 50% of the animals during subsequent 2-hour observation period was calculated by the probit method.

The subject of assay [3] is learning and memory. The conditions noted are these: M. Sarter et al., TINS 11, 13 (1988); cited from earlier work.
The test system of assay [4] is learning and memory. The settings on record: M. Sarter et al., TINS 11, 13 (1988); cited from earlier work. The source holds these as a separate data set.

In general, ED50 refers to the dose that gives a 50% effect, or the effect in half of the subjects. As a reminder, the Ki is a measure of affinity in units of concentration, obtained from inhibition or displacement. Take `CC(C)C(=O)c1nc2cnc3ccccc3c2[nH]1` [Ic-14]: the ED50 in assay [1] was determined as 0.2 mg/kg. On Benzodiazepine Receptor, this molecule displayed a Ki of 1.24 nM.

`O=C(c1ccc(Cl)cc1)c1nc2cnc3ccccc3c2[nH]1` [Ic-41] came in with a Ki on Benzodiazepine Receptor of 8.33 nM. In the case of `O=C(c1nc2cnc3ccccc3c2[nH]1)c1ccco1` [Ic-56], the Ki at Benzodiazepine Receptor is 1.07 nM.

For the molecule `CSCCC(=O)c1nc2cnc3ccccc3c2[nH]1` [Ic-31], the affinity on Benzodiazepine Receptor corresponds to a Ki of 1.5 nM. For the molecule `CCCCCCC(=O)c1nc2cnc3ccccc3c2[nH]1` [Ic-9], the inhibition constant Ki on Benzodiazepine Receptor came to 6.11 nM. The median effective dose (ED50) in assay [2] was 3.21 mg/kg. `CSc1ccc(C(=O)c2nc3cnc4ccccc4c3[nH]2)cc1` [Ic-45]: the Ki at Benzodiazepine Receptor was determined as 3.2 nM. In addition, the ED50 in assay [2] is 0.88 mg/kg.

As to `O=C(c1nc2cnc3ccc(F)cc3c2[nH]1)C1CC1` [Ic-21], the affinity on Benzodiazepine Receptor, expressed as Ki, was 0.5 nM. Turning to `C/C=C/C(=O)c1nc2cnc3ccccc3c2[nH]1` [Ic-27], the inhibitory constant (Ki) on Benzodiazepine Receptor turned out to be 13.1 nM. The 50% effective dose (ED50) in assay [2] worked out at 2.47 mg/kg.

For `CCNC(=O)c1nc2cnc3ccccc3c2[nH]1` [Ic-67], the ED50 in assay [1] was determined as 0.35 mg/kg.

On to `Cc1cc(C(=O)c2nc3cnc4ccccc4c3[nH]2)no1` [Ic-60], for which the ED50 in assay [1] was 0.71 mg/kg. Further, the Ki at Benzodiazepine Receptor amounted to 0.373 nM.

`CCC(=O)c1nc2cnc3ccccc3c2[nH]1` [Ic-4] registered a Ki at Benzodiazepine Receptor of 0.409 nM.

`COc1ccc2c(c1)ncc1nc(C(=O)C3CC3)[nH]c12` [Ic-22]: the 50% effective dose (ED50) in assay [1] came out at 0.15 mg/kg. For the same molecule, the affinity on Benzodiazepine Receptor corresponds to a Ki of 1.9 nM. `O=C(c1nc2cnc3ccccc3c2[nH]1)C1CC1` [Ic-1, 2-Cyclopropylcarbonyl-1H-imidazo[4,5-c]quinoline]: the Ki at Benzodiazepine Receptor was determined as 0.357 nM. For `O=C(c1ccccc1)c1nc2cnc3ccccc3c2[nH]1` [Id-2], the ED50 in assay [2] stood at 1.06 mg/kg. At Benzodiazepine Receptor, `O=C(c1cccnc1)c1nc2cnc3ccccc3c2[nH]1` [Ic-49] gave a Ki of 1.8 nM.

In the case of `O=C(c1nc2cnc3ccccc3c2[nH]1)c1ccc(Cl)s1` [Ic-36, 2-[(5-Chlorothiophen-2-yl)carbonyl]-1H-imidazo[4,5-c]quinoline], the 50% effective dose (ED50) in assay [2] came out at 0.46 mg/kg. Take `O=C(c1nc2cnc3ccccc3c2[nH]1)c1cccs1` [Ic-50]: the affinity at Benzodiazepine Receptor, expressed as Ki, was 0.819 nM. Turning to `CCCC(=O)c1nc2cnc3ccccc3c2[nH]1` [Ic-6], in assay [1], the ED50 was determined as 1 mg/kg. On Benzodiazepine Receptor, the Ki is 0.432 nM. As to `CCOC(=O)c1nc2cnc3ccccc3c2[nH]1` [Ic-64, 2-Ethoxycarbonyl-1H-imidazo[4,5-c]quinoline], the ED50 in assay [1] is 0.31 mg/kg.

For the molecule `O=C(c1cccc(F)c1)c1nc2cnc3ccccc3c2[nH]1` [Ic-38], the ED50 in assay [2] was found to be 1.12 mg/kg. `O=C(c1nc2cnc3ccccc3c2[nH]1)c1ccccc1F` [Ic-37]: the inhibition constant (Ki) on Benzodiazepine Receptor is 2.21 nM. `COC(=O)c1cc2c(cn1)[nH]c1ccccc12` [methyl β-carbonline-3-carboxylate]: the “performance in several animal models of learning and memory” value in the assay with learning and memory [3] is reported as “enhances the performance”.

On to `CN1C(=O)CN=C(c2ccccc2)c2cc(Cl)ccc21` [diazepam], for which, in the assay with learning and memory [4], the “performance (learning and memory) in humans” value is reported as “impairs such performance”. In turn, `CCC(C)C(=O)c1nc2cnc3ccccc3c2[nH]1` (stereo not shown) [Ic-18] yielded a Ki on Benzodiazepine Receptor of 3.6 nM.

The values above are taken from patent US4940714A, “2-substituted carbonylimidazo[4,5-c]quinolines” (Shionogi & Co., Ltd., priority 1988, dated 1990).
